Assay results published in patent US12187773B2, “Modified GIP peptide analogues” (Antag Therapeutics ApS, priority 2018, dated 2025).
Like-named read-outs stand apart in the source and are kept apart here. *1 amine or outer side, *2 acyl side, *3 side chain or, on linkers, in order; H or OH if unused. Where a SMILES comes first, the peptide text is derived from it. Side-chain parts run from the residue outwards. [ ]: non-standard residue; d: D form. The star is where a group is joined. C18 diacid = O=C(O)CCCCCCCCCCCCCCCCC(=O)*; γGlu = O=C(O)[C@H](CCC(=O)[*:2])N[*:1]; pGlu = O=C1CC[C@@H](C(=O)O)N1; AEEA = NCCOCCOCC(=O)O

How the values were obtained:
GLP2 receptor (GLP2R) = target: T1, GLP2 receptor (GLP2R) (Homo sapiens, UniProt O95838); assay: cAMP assay - selectivity, antagonism at GLP2 receptor; format: cell-based; settings: Table 3B; COS-7 cells; agonist GLP2
T1 construct: expressed in transfected cells; host or cells: COS-7 (transient)
T1 sequence (O95838 1-553): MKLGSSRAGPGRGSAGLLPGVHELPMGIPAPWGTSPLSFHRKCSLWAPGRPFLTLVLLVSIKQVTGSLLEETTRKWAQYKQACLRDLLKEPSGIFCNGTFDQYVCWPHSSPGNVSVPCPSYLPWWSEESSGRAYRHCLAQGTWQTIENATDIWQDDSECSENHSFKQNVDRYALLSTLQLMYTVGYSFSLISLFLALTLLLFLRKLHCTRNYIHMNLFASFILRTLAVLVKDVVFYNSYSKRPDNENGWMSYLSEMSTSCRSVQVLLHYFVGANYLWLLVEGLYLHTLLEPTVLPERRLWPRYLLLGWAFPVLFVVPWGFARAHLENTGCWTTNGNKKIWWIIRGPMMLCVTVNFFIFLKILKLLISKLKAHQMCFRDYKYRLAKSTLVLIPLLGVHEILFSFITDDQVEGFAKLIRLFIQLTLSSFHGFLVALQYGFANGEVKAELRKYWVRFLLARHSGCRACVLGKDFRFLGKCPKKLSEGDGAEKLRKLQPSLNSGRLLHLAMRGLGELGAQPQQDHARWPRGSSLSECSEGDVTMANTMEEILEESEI
Experimental: (§1) Transient transfected COS-7 cells expressing the either of the GLP1 receptor (GLP1R), GLP2 receptor (GLP2R), glucagon receptor (GcgR) or secretin receptor (SCTR) were seeded in white 96-well plates with a density of 3.5*10^4/well. The day after, the cells were washed twice with Hepes buffered saline (HBS) buffer and incubated with HBS and 1 mM 3-isobutyl-1-methylxanthine (IBMX) for 30 min at 37° C. To test for agonistic properties, ligands were added and incubated for 30 min at 37° C. In order to test for antagonistic properties, the cells were preincubated with the antagonists for 10 min prior to the addition the natural agonist for the expressed receptor (GLP1 for GLP1R expressing cells, GLP2 for GLP2R expressing cells, glucagon for the GcgR and secretin for the SCTR) and subsequent incubated for 20 additional min. […] The HitHunter™ cAMP XS assay (DiscoveRx) was carried out according to the manufacturer's instructions.

secretin receptor (SCTR) = target: T2, secretin receptor (SCTR) (Homo sapiens, UniProt P47872); assay: cAMP assay - selectivity, antagonism at secretin receptor; format: cell-based; settings: Table 3B; COS-7 cells; agonist secretin
T2 construct: expressed in transfected cells; host or cells: COS-7 (transient)
Experimental: as §1

[1] = Elimination half-life (T1/2) estimated in Göttingen minipigs; format: in vivo
Experimental: 2-3 Göttingen minipigs were subcutaneously administered one of the GIP analogues of the present invention (1-10 nmol/kg, total volume 2-6 mL) and blood samples were collected before and up to 432 hours post subcutaneous administration.) from a central venous catheter. The catheter was flushed with saline and heparin between samples. Blood was collected into cold EDTA tubes, centrifuged and plasma was kept at −20° C. pending analyses.
Concentrations of the acylated GIP(3-30)NH2 or GIP(5-30)NH2 analogues in blood samples from Göttingen minipigs were analyzed by RIA. Analogues' immunoreactivity was determined using antiserum Ab95234, Ab95235, Ab95236, a polyclonal in-house antibody raised in rabbits specific for either the mid region of GIP(1-30)NH2 or amidated C-terminus of GIP(3-30)NH2.
In addition to the hormone analysis, blood concentrations of AT374, 380, 382-385, 392-393 were determined by LC/MS performed by Red Glead Discovery AB, Lund, Sweden. The plasma samples were precipitated by addition of 3 parts ethanol followed by thorough mixing. After centrifugation and dilution of the supernatant, the samples were analyzed by LC-MS/MS and compared with a 9-point calibration curve. The calibration curves were prepared in naïve plasma matrix from Göttingen minipigs.

human GIP receptor = target: T3, human GIP receptor (Homo sapiens, UniProt P48546); assay: cAMP accumulation, antagonism (DiscoveRx HitHunter cAMP XS assay); format: cell-based; set-up: host or cells: COS-7 (transient, calcium phosphate; pCMV-Script vector); settings: DiscoveRx
T3 sequence (P48546 22-466): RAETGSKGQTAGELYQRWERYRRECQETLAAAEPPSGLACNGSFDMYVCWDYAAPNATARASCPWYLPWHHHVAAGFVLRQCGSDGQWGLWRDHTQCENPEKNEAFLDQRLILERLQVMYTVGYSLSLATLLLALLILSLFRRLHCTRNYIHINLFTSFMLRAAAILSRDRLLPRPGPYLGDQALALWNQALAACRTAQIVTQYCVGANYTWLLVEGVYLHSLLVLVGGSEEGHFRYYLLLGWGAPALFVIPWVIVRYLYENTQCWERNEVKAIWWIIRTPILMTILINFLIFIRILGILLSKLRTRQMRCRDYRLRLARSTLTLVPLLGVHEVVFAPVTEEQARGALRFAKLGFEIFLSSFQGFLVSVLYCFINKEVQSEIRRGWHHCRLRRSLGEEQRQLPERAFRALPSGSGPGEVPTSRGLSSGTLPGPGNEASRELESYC
Summary of the method: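 Transiently transfected COS-7 cells expressing human GIP receptor, pretreated with 1 mM IBMX in HBS 30 min at 37 °C. Agonism: ligand 30 min at 37 °C; antagonism: 10 min antagonist preincubation, then GIP at 50-80% maximal response for 20 min. cAMP measured by HitHunter cAMP XS.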

GLP1 receptor (GLP1R) = target: T4, GLP1 receptor (GLP1R) (Homo sapiens, UniProt P43220); assay: cAMP assay - selectivity, antagonism at GLP1 receptor; format: cell-based; settings: Table 3A; COS-7 cells; agonist GLP1 at 50-80% of maximal cAMP
T4 construct: expressed in transfected cells; host or cells: COS-7 (transient)
T4 sequence (P43220 24-463, species assumed): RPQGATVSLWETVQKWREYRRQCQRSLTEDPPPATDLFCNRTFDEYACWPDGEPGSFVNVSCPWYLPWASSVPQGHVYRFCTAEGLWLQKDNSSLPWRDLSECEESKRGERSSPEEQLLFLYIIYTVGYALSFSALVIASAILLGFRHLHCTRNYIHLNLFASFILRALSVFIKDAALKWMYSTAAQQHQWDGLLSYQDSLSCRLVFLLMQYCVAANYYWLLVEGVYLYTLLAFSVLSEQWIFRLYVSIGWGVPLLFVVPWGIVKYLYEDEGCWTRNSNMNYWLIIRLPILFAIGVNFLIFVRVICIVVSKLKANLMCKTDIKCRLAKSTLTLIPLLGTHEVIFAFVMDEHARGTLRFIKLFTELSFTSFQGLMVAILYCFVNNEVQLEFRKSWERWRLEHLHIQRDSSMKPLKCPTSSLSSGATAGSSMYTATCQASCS

T2 sequence (P47872 23-440, species assumed): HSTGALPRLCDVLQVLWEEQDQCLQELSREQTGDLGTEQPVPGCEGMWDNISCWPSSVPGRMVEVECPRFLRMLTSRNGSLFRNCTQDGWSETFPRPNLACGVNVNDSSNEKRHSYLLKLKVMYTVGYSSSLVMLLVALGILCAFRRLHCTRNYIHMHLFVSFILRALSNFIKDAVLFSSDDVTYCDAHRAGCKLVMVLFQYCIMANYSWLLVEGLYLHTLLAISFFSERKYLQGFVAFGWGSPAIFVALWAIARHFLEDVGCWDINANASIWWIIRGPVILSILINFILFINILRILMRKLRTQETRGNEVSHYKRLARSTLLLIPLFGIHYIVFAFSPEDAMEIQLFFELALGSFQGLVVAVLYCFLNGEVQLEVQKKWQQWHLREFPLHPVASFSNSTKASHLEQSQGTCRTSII

CC[C@H](C)[C@H](NC(=O)[C@H](CO)NC(=O)[C@H](Cc1ccc(O)cc1)NC(=O)[C@H](CC(=O)O)NC(=O)[C@H](CO)NC(=O)[C@@H](NC(=O)[C@H](Cc1ccccc1)NC(=O)[C@@H](NC(=O)CNC(=O)[C@@H]1CCC(=O)N1)[C@@H](C)O)[C@@H](C)CC)C(=O)N[C@@H](C)C(=O)N[C@@H](CCSC)C(=O)N[C@@H](CC(=O)O)C(=O)N[C@@H](CCCNC(=N)N)C(=O)N[C@H](C(=O)N[C@@H](CCCCNC(=O)COCCOCCNC(=O)COCCOCCNC(=O)COCCOCCNC(=O)CC[C@H](NC(=O)CCCCCCCCCCCCCCCCC(=O)O)C(=O)O)C(=O)N[C@@H](CCC(N)=O)C(=O)N[C@@H](CCC(N)=O)C(=O)N[C@@H](CC(=O)O)C(=O)N[C@@H](Cc1ccccc1)C(=O)N[C@H](C(=O)N[C@@H](CC(N)=O)C(=O)N[C@@H](Cc1c[nH]c2ccccc12)C(=O)N[C@@H](CC(C)C)C(=O)N[C@@H](CC(C)C)C(=O)N[C@@H](C)C(=O)N[C@@H](CCC(N)=O)C(=O)N[C@@H](CCCNC(=N)N)C(N)=O)C(C)C)[C@@H](C)CC [AT382] ([pGlu]GTFISDYSIAMDRIK([AEEA-AEEA-AEEA-γGlu-C18 diacid])QQDFVNWLLAQR-NH2)
GLP-2R, Antagonism (GLP2 receptor (GLP2R)): No antagonism
Secretin R, Antagonism (secretin receptor (SCTR)): No antagonism
half-life ([1]; Göttingen, minipig, plasma, subcutaneous, Example 1, read-out: T1/2 (converted)): 29 h
half-life ([1]; sc, Table 1B, species not given, unit h, LC/MS in Göttingen minipig plasma for these IDs, subcutaneous 1-10 nmol/kg, read-out: T½ (converted)): 29 h
cAMP antagonism, % inhib (human GIP receptor; Table 1B, COS-7 cells, % inhibition of Emax): 100%
GIPR, Antagonism, % inhib (human GIP receptor; Table 3A/3B, COS-7 cells): 100.0%
IC50 (human GIP receptor; cAMP antagonism, nM (IC50), Table 1B, transiently transfected COS-7 cells): 2 nM
GLP-1R, Antagonism, nM (GLP1 receptor (GLP1R)): No antagonism
